Measurements reported in the supplement of paper PMC10307832.

Experiments:
Experiment in all cases: relative viability (nuclei count vs DMSO), 5 days (fraction); higher = more cells survive
[1] = compound: CN[C@@H]1C[C@H]2O[C@@](C)([C@@H]1OC)n1c3ccccc3c3c4c(c5c6ccccc6n2c5c31)C(=O)NC4 [Staurosporine] + CC(C)C[C@H](NC(=O)[C@H](Cc1ccccc1)NC(=O)c1cnccn1)B(O)O [Bortezomib] (partner 0.002 µM)
In short: (§1)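 Lung cancer cell lines were pin-tool dosed in 1536-well plates on the day after seeding, with either a lone drug or a fixed anchor-drug dose plus five library-drug doses (not always all listed) in √10 steps. Nuclei were counted on 4× images after 5 days. Relative viability is the ratio of treated-well to vehicle-well nuclei counts, with each value a median of duplicate plates.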

[2] = compound: O=c1[nH]cc(F)c(=O)[nH]1 [5-Fluorouracil] + COc1cc2c(Oc3ccc(NC(=O)C4(C(=O)Nc5ccc(F)cc5)CC4)cc3F)ccnc2cc1OCCCN1CCOCC1 [Foretinib] (partner 0.25 µM)
In short: as §1

[3] = compound: O=c1[nH]cc(F)c(=O)[nH]1 [5-Fluorouracil] + CS(=O)(=O)CCNCc1ccc(-c2ccc3ncnc(Nc4ccc(OCc5cccc(F)c5)c(Cl)c4)c3c2)o1 [Lapatinib] (partner 2 µM)
In short: as §1

[4] = compound: O=c1[nH]cc(F)c(=O)[nH]1 [5-Fluorouracil] + C[C@@H](Oc1cc(-c2cnn(C3CCNCC3)c2)cnc1N)c1c(Cl)ccc(F)c1Cl [Crizotinib] (partner 1 µM)
In short: as §1

Row | Cell Line | relative viability ([1]; first compound 0.005 µM) | relative viability ([1]; first compound 0.01581 µM) | relative viability ([1]; first compound 0.05 µM) | relative viability ([1]; first compound 0.1581 µM) | relative viability ([1]; first compound 0.5 µM) | relative viability ([2]; first compound 0.02 µM) | relative viability ([2]; first compound 0.2 µM) | relative viability ([2]; first compound 0.6325 µM) | relative viability ([2]; first compound 2 µM) | relative viability ([3]; first compound 0.02 µM) | relative viability ([3]; first compound 0.2 µM) | relative viability ([3]; first compound 0.6325 µM) | relative viability ([3]; first compound 2 µM) | relative viability ([4]; first compound 0.02 µM) | relative viability ([4]; first compound 0.2 µM) | relative viability ([4]; first compound 0.6325 µM) | relative viability ([4]; first compound 2 µM)
1 | A-427 | 1.02 | 0.87 | 0.367 | 0.131 | 0.133 | 0.961 | 1.19 | 1.08 | 0.625 | 1.02 | 1.07 | 1.07 | 0.792 | 0.799 | 0.965 | 0.77 | 0.378
2 | PC-14 | 0.838 | 0.428 | 0.293 | 0.0723 | 0.065 | 1.1 | 0.987 | 0.757 | 0.58 | 0.305 | 0.433 | 0.327 | 0.292 | 0.899 | 0.928 | 0.788 | 0.456
3 | LCLC-97TM1 | 0.164 | 0.158 | 0.219 | 0.151 | 0.0852 | 0.941 | 0.989 | 0.941 | 0.671 | 0.693 | 0.857 | 0.617 | 0.272 | 0.349 | 0.552 | 0.244 | 0.171
4 | BEN | 0.698 | 0.528 | – | 0.253 | 0.163 | 0.63 | 0.609 | 0.548 | 0.587 | 0.658 | 0.628 | 0.615 | 0.602 | 1.02 | 0.719 | 0.615 | 0.718
5 | NCI-H2085 | 0.856 | 0.565 | 0.604 | 0.499 | 0.402 | 1.02 | 0.899 | 0.93 | 0.592 | 0.654 | 0.957 | 0.923 | 0.704 | 0.962 | 1.01 | 0.756 | 0.636
6 | NCI-H1792 | 1.05 | 0.797 | 0.372 | 0.182 | 0.196 | – | – | – | – | 0.893 | 0.853 | 0.235 | 0.161 | 1.07 | 0.943 | 0.31 | 0.164
7 | LCLC-103H | 1.03 | 0.613 | 0.364 | 0.274 | 0.251 | 0.845 | 0.717 | 0.454 | 0.267 | – | – | – | – | 1.1 | 1.11 | 0.883 | 0.566
8 | NCI-H2342 | – | – | – | – | – | 0.961 | 1 | 0.885 | 0.786 | – | – | – | – | – | – | – | –
9 | NCI-H1793 | – | – | – | – | – | 0.683 | 0.674 | 0.57 | 0.406 | 0.581 | 0.853 | 0.471 | 0.347 | – | – | – | –
10 | SK-MES-1 | – | – | – | – | – | 0.872 | 0.946 | 0.45 | 0.358 | 0.471 | 0.494 | 0.373 | 0.357 | 1.01 | 0.743 | 0.368 | 0.319
11 | LK-2 | – | – | – | – | – | 1.6 | 1.02 | 1.13 | 0.568 | 1.17 | 1.08 | 0.697 | 0.535 | 0.246 | – | 0.21 | 0.221
12 | NCI-H441 | 0.391 | 0.209 | 0.212 | 0.133 | 0.126 | 1.01 | 0.887 | 0.558 | 0.361 | – | – | – | – | 0.511 | 0.767 | 0.388 | 0.333
13 | NCI-H1395 | – | – | – | – | – | 0.827 | 1.14 | 1.05 | 0.987 | 0.724 | 1.12 | 1.01 | 0.825 | – | – | – | –
